Source: patent US11800866B2, “Methods for control of pests” (Bio-Gene Technology Limited, priority 2018, dated 2023)
In brackets after ≈: the same amount, converted by molar mass. Where two headings read alike, the source gives them in different places.

Key:
Type in all cases: in vivo
[1] = system: cotton aphid (Aphis gossypii); assay: field trial, control of cotton aphid in cotton
Description: A field trial was conducted on a small plot of cotton in March 2018 to evaluate flavesone for the control of cotton aphid in cotton. The trial was conducted near Burren Junction in the Lower Namoi Valley Region of New South Wales, Australia. The trial was conducted in a crop grown as per standard commercial practice. It was precision planted on hills in rows 1 m apart and furrow flood irrigated. The crop was fully irrigated being watered as required over the duration of the season. The crop matured to produce good yield, typical of the region for the season. Light rainfall occurred at 6 and 7 days after treatment (DAT). The maximum temperature ranged from 28 to 38° C. and minimum temperature ranged from 14 to 23° C.
The plot was 4 m×8 m and four replicates were used. The plot was infested with cotton aphid at a moderate to high level with 36% of leaves infested pre-spray. The population on the untreated cotton increased over the duration of the trial with 83% leaves infested at 7 DAT.
The crop was either left untreated (control), treated with flavesone (Flavocide 500 EW) at varying concentrations or treated with Pirimor® (pirimicarb, positive control) as set out in Table 3:
The test solution was applied by broadcast method using a hand held boom sprayer with nozzles (Spraying Systems TT110015 flat fans) spaced 50 cm apart, with pressure being 250 kPa. Application speed was 1.5 m/s and the application volume was 105 L/ha.
The effectiveness of the application was evaluated on day 0 and 3 and 7 DAT. 20 leaves in the upper canopy of the plants in each plot were inspected and the number of aphids on each leaf recorded. The percentage of leaves infested and the mean number of aphids per leaf was then determined.
Statistical analyses were conducted using GenStat 64-bit Release 17.1 (PC/Windows Server 2008, VSN International Ltd). The model includes all treatment effects. Analysis of variance and least significant difference (LSD) procedures were used. Further means of separation was achieved by transforming the data using Square Root (x+0.5) or Log Base 10.

[2] = system: green peach aphid (Myzus persicae); assay: leaf dip assay on Chinese cabbage leaves, green peach aphid
Description: The efficacy of flavesone against green peach aphid (Myzus persicae) was tested in a similar leaf dip assay as set out in Example 1, but used Chinese cabbage leaves, and 10 to 100,000 mg/L flavesone concentrations. The green peach aphids used were cultured in the laboratory from field collected insects.

[3] = system: Russian Wheat Aphid (Diuraphis noxia); assay: leaf dip method on wheat leaf segments, Russian Wheat Aphid; conditions: for LC50: concentration giving 50% mortality, 95% CIs
Description: The efficacy of flavesone against Russian Wheat Aphid (Diuraphis noxia) was assessed using the leaf dip method described in Moores et al 1994 (Pesticide Biochemistry and Physiology, 49, 114-120), adapted for use with cereal aphids by using wheat leaf segments.
Serially diluted concentrations of flavesone (1 to 30000 mg/L) were tested at rates designed to include the expected field rate in cereals (Table 1), along with a control of water. Leaf segments (25 mm) cut from wheat (Triticum aestivum) plants were submerged for 1 second in the insecticide solutions or water (control), and placed adaxial side up on 10 g/L agar in 35 mm petri dishes. Once leaves were air-dry, eight 3-4 day old D. noxia nymphs were transferred to insecticide-dipped leaf segments using a fine-haired paintbrush. The population used was originally collected from Dingee (VIC) and maintained in the laboratory under a 18:6 LD cycle at 12-20° C. since June 2016.
The petri dishes were then inverted onto a lid containing a 25 mm diameter filter paper to control humidity, and were placed at 18° C.±2° C. with a photoperiod of 16:8 LD cycle. Six replicates were used for each concentration tested, and responses were assessed after 48 and 96 hours. Aphids were scored as alive (vibrant and moving freely), dead (not moving over a 5 second period), or incapacitated (inhibited movement).
Dose-response curves were generated by plotting percentage mortality against log concentration. Mortality data was analysed using a logistic regression model with random effects. Logistic regression is suited for the analysis of binary response data (i.e. dead/alive) with the random effect component of the model controlling for the non-independence of mortality scores within replicates. […] Analyses were conducted using R version 3.3.1 (R Development Core Team 2018, R: A language and environment for statistical computing. R Foundation for Statistical Computing, Vienna, Austria. http//www.R-project.org).

CC(C)C(=O)C1C(=O)C(C)(C)C(=O)C(C)(C)C1=O [Flavesone, 1-isobutyroyl-3,3,5,5-tetramethylcyclohexan-2,4,6-trione]
Mean Number of Cotton Aphid per leaf ([1]; 0.1% v/v, 0 DAT (pre-spray)): 1.5 ab | Mean Percentage of Leaves infested with cotton Aphid ([1]; 0.1% v/v, 0 DAT (pre-spray)): 34% | Mean Number of Cotton Aphid per leaf ([1]; 0.1% v/v, 3 DAT): 1.1 ab | Mean Percentage of Leaves infested with cotton Aphid ([1]; 0.1% v/v, 3 DAT): 15% | Mean Number of Cotton Aphid per leaf ([1]; 0.1% v/v, 7 DAT): 2.5 bc | Mean Percentage of Leaves infested with cotton Aphid ([1]; 0.1% v/v, 7 DAT): 43 c % | Mean Number of Cotton Aphid per leaf ([1]; 0.25% v/v, 0 DAT (pre-spray)): 2.6 b | Mean Percentage of Leaves infested with cotton Aphid ([1]; 0.25% v/v, 0 DAT (pre-spray)): 43% | Mean Number of Cotton Aphid per leaf ([1]; 0.25% v/v, 3 DAT): 2.1 ab | Mean Percentage of Leaves infested with cotton Aphid ([1]; 0.25% v/v, 3 DAT): 39% | Mean Number of Cotton Aphid per leaf ([1]; 0.25% v/v, 7 DAT): 3.1 c | Mean Percentage of Leaves infested with cotton Aphid ([1]; 0.25% v/v, 7 DAT): 38 bc % | Mean Number of Cotton Aphid per leaf ([1]; 0.50% v/v, 0 DAT (pre-spray)): 1.1 . . . ab | Mean Percentage of Leaves infested with cotton Aphid ([1]; 0.50% v/v, 0 DAT (pre-spray)): 30% | Mean Number of Cotton Aphid per leaf ([1]; 0.50% v/v, 3 DAT): 1.0 ab | Mean Percentage of Leaves infested with cotton Aphid ([1]; 0.50% v/v, 3 DAT): 19% | Mean Number of Cotton Aphid per leaf ([1]; 0.50% v/v, 7 DAT): 2.4 bc | Mean Percentage of Leaves infested with cotton Aphid ([1]; 0.50% v/v, 7 DAT): 40 c % | Mean Number of Cotton Aphid per leaf ([1]; 0.75% v/v, 0 DAT (pre-spray)): 1.4 ab | Mean Percentage of Leaves infested with cotton Aphid ([1]; 0.75% v/v, 0 DAT (pre-spray)): 33% | Mean Number of Cotton Aphid per leaf ([1]; 0.75% v/v, 3 DAT): 3.4 b | Mean Percentage of Leaves infested with cotton Aphid ([1]; 0.75% v/v, 3 DAT): 34% | Mean Number of Cotton Aphid per leaf ([1]; 0.75% v/v, 7 DAT): 2.7 bc | Mean Percentage of Leaves infested with cotton Aphid ([1]; 0.75% v/v, 7 DAT): 50 c % | Mean Number of Cotton Aphid per leaf ([1]; 1.00% v/v, 0 DAT (pre-spray)): 0.6 a | Mean Percentage of Leaves infested with cotton Aphid ([1]; 1.00% v/v, 0 DAT (pre-spray)): 26% | Mean Number of Cotton Aphid per leaf ([1]; 1.00% v/v, 3 DAT): 0.2 a | Mean Percentage of Leaves infested with cotton Aphid ([1]; 1.00% v/v, 3 DAT): 9% | Mean Number of Cotton Aphid per leaf ([1]; 1.00% v/v, 7 DAT): 1.0 ab | Mean Percentage of Leaves infested with cotton Aphid ([1]; 1.00% v/v, 7 DAT): 19 b % | control of cotton aphid ([1]; highest 1% v/v rate): slightly better control | toxicity to green peach aphid ([2]; 10 to 100,000 mg/L): toxic to green peach aphid | concentration at which mortality responses began to increase ([2]; 48 hours): 1000 mg/L | concentration at which mortality increased ([2]; 96 hours): 1000 mg/L | mortality at 10000 µg/mL ([2]; Myzus persicae, foliar, 10,000 mg/L, 96 hours): 100% | mortality at 30000 µg/mL ([2]; Myzus persicae, foliar, 30,000 mg/L, 48 hours exposure): 100% | toxicity to D. noxia ([3]; 1-30,000 mg a.i./L): toxic to D. noxia | LC50 ([3]; Diuraphis noxia, foliar, exposure time not given, read-out: LC50): 405 µg/mL (≈ 1610 µM) | mortality at 3000 µg/mL ([3]; Diuraphis noxia, foliar, 3,000 mg a.i./L, largest increase, read-out: increase of mortality between 48 and 96 hours): 58% | mortality at 30000 µg/mL ([3]; Diuraphis noxia, foliar, 30,000 mg a.i./L, 48 hours exposure): 100% | LC50 ([3]; exposure time not given): 405.4 mg a.i./L | LC90 ([3]; concentration giving 90% mortality, exposure time not given): 1.5 × 10^4 mg a.i./L | LC99 ([3]; concentration giving 99% mortality, exposure time not given): 8.1 × 10^5 mg a.i./L | concentration at which mortality began to increase ([3]; in vivo): 300 mg a.i./L
